These results are taken from US9688707B2, “Bicyclic morpholino compounds and oligomeric compounds prepared therefrom” (Ionis Pharmaceuticals, Inc., priority 2014, dated 2017).

The subject of this data set is complementary RNA with the sequence 5′-AGCAAAAAACGC-3′ (SEQ ID NO: 6). Description: Thermal stability (Tm) assay. It counts as binding. As to conditions: for ΔTm: calculated relative to a DNA standard, same duplex and buffer as Tm; for Tm: duplex with complementary RNA strand, buffer 100 mM NaCl, 10 mM phosphate, 0.1 mM EDTA (pH 7), heating 0.5° C./min from 15° C. to 85° C. The method, then: A series of modified morpholino oligomeric compounds were evaluated in a thermal stability (Tm) assay. A Cary 100 Bio spectrophotometer with the Cary Win UV Thermal program was used to measure absorbance vs. temperature. For the Tm experiments, oligomeric compounds were prepared at a concentration of 8 μM in a buffer of 100 mM NaCl, 10 mM phosphate and 0.1 mM EDTA (pH 7). The concentration of the oligonucleotides was determined at 85° C. The concentration of each oligomeric compound was […] after mixing of equal volumes of test oligomeric compound and complimentary RNA strand. Oligomeric compounds were hybridized with the complimentary RNA strand by heating the duplex to 90° C. for 5 minutes followed by cooling to room temperature. Using the spectrophotometer, Tm measurements were taken by heating the duplex solution at a rate of 0.5° C./min in cuvette starting @15° C. and heating to 85° C. Tm values were determined using Vant Hoff calculations (A260 vs temperature curve) using non self-complementary sequences where the minimum absorbance which relates to the duplex and the maximum absorbance which relates to the non-duplex single strand are manually integrated into the program. The oligomeric compounds were hybridized to complementary RNA with the sequence 5′-AGCAAAAAACGC-3′ (SEQ ID NO: 6). ΔTm's are calculated relative to a DNA standard.

As usually defined, the Tm is the temperature at the midpoint of the melting transition. “05/592979: GCGTTqTTqTTqGCT, q = bicyclic morpholino, diamidate linkages, 3′-cap NH (GCGTT_{q}TT_{q}TT_{q}GCT; morpholino oligomer, diamidate linkages, bicyclic morpholino at marked places, 3'-NH cap, as printed in the source, key not given here)”: the ΔTm was 3 °C and the Tm came to 48.6 °C.
With “05/592592: GCGTTmRTTmRTTmRGCT, diamidate linkages, morpholino, 3′-cap NTr (trityl) (GCGTT_{mR}TT_{mR}TT_{mR}GCT; modified morpholino nucleosides, diamidate linkages, 3'-trityl cap, as printed in the source, key not given here)”, the ΔTm was −0.8 and the midpoint of thermal melting (Tm) was found to be 44.8 °C.
Taken in the same sequence, the figures for “05/585595: GCGTTmRTTmRTTmRGCT, diamidate linkages, morpholino, 3′-cap NH (GCGTT_{mR}TT_{mR}TT_{mR}GCT; morpholino oligomer, diamidate linkages, modified morpholino nucleosides at marked places, 3'-NH cap, as printed in the source, key not given here)” were 5.3 °C and 50.9 °C.
As for “05/592595: GCGTTmSTTmSTTmSGCT, diamidate linkages, morpholino, 3′-cap NH (GCGTT_{mS}TT_{mS}TT_{mS}GCT; modified morpholino nucleosides, diamidate linkages, 3'-NH cap, as printed in the source, key not given here)”, the ΔTm is 10 °C and the Tm worked out at 55.6 °C.
On to “05/standard: DNA standard GCGTTTTTTGCT, PO linkages, unmodified DNA, 3′-cap OH (unmodified DNA) [reference compound]”, for which the Tm was 45.6 °C.
Consider “05/592978: GCGTTqTTqTTqGCT, q = bicyclic morpholino, diamidate linkages, 3′-cap NTr (trityl) (GCGTT_{q}TT_{q}TT_{q}GCT; bicyclic morpholino, diamidate linkages, 3'-trityl cap, as printed in the source, key not given here)”, for which the ΔTm is recorded as −2.2 and the midpoint of thermal melting (Tm) was 43.4 °C.
Taken in the same sequence, the figures for “05/592594: GCGTTmSTTmSTTmSGCT, diamidate linkages, morpholino, 3′-cap NTr (trityl) (GCGTT_{mS}TT_{mS}TT_{mS}GCT; morpholino oligomer, diamidate linkages, modified morpholino nucleosides at marked places, 3'-trityl cap, as printed in the source, key not given here)” were 5.1 °C and 50.7 °C.
